Test results: the NIST ThermoML archive (doi:10.1021/je050182i)
“And” between values parts separate entries of the source, which are not always exact repeats. Equal values may be shown once.

Settings: Liquid

CCCCCCCCCCCCCCCCCCCCC [heneicosane]
Settings	vapor or sublimation pressure [kPa]
351.54 K	0.000396
361.52 K	0.000971
371.42 K	0.0022
381.65 K	0.00498
391.86 K	0.0106
402.05 K	0.0213
422.19 K	0.0751
432.27 K	0.133
442.3 K	0.228
452.22 K	0.378
461.96 K	0.611

CCCCCCCCCCCCCCCCCCCCCCCCCCC [heptacosane]
Settings	vapor or sublimation pressure
401.68 K	0.000592 kPa
401.69 K	0.00059 kPa
411.78 K	0.00129 kPa
411.81 K	0.0013 kPa
421.93 K	0.00269 kPa
421.95 K	0.00272 kPa
432.03 K	0.00556 kPa
442.18 K	0.011 kPa
452.27 K	0.0214 kPa
462.27 K	0.0405 kPa and 0.0401 kPa

CCCCCCCCCCCCCCCCCCCCCCCCCCCCC [nonacosane]
Settings	vapor or sublimation pressure
422.1 K	0.00097 kPa and 0.000971 kPa
432.12 K	0.00206 kPa
442.17 K	0.00421 kPa
442.19 K	0.00417 kPa
452.2 K	0.00824 kPa
452.23 K	0.00819 kPa

CCCCCCCCCCCCCCCCCCCCCCCCC [pentacosane]
Settings	vapor or sublimation pressure
381.69 K	0.000331 kPa
391.91 K	0.000783 kPa
402.03 K	0.00178 kPa
411.75 K	0.00383 kPa
411.78 K	0.00383 kPa
422.02 K	0.00802 kPa
432.21 K	0.0158 kPa
442.33 K	0.0296 kPa
442.34 K	0.0299 kPa
452.24 K	0.0541 kPa
452.25 K	0.0534 kPa
461.95 K	0.0926 kPa
461.98 K	0.0923 kPa and 0.0938 kPa

CCCCCCCCCCCCCCCCCCCCCCCCCCCCCC [triacontane]
Settings	vapor or sublimation pressure [kPa]
432.36 K	0.00115
432.37 K	0.00113
442.48 K	0.00233
452.32 K	0.00457
452.34 K	0.00451

CCCCCCCCCCCCCCCCCCCCCCC [tricosane]
Settings	vapor or sublimation pressure [kPa]
412.18 K	0.0129
422.26 K	0.0248
422.29 K	0.0247
432.34 K	0.0461
442.33 K	0.0839
452.22 K	0.143
461.99 K	0.242
